The values below come from article PMC8469897, “Transcriptomic Characterization of Odorant Binding Proteins in Cacia cretifera thibetana and Their Association with Different Host Emitted Volatiles” (Insects, 2021).

pIC50, pKd, pKi: −log10 of the molar value.

In one test the target is CcreOBP10. The experiment in a line: Fluorescence competitive binding assay with 1-NPN probe, CcreOBP10. On the set-up: species or system Cacia cretifera thibetana. The protocol: (§1) The binding affinities of both CcreOBP6 and CcreOBP10 proteins with 20 odor volatiles were determined. The CcreOBP6 and CcreOBP10 proteins from prokaryotic cells were purified by Ni affinity chromatography. Then, 50 mM Tris-HCL buffer solution (pH = 7.4) was prepared, and N-phenyl-1-naphthylamine (1-NPN) was used as a fluorescent probe. For chromatography, the methanol was used as a solvent for fluorescent probe 1-NPN as well as for 20 odor standard volatile samples dissolved in solvent to make a 1 mM solution. These samples were added to a 96 Micro Well TM microtiter plate (NunclonTM) while the multifunctional microplate reader (VARIOSKAN FLASH) excitation light wavelength was set to 337 nm. The scanning wavelength was between 370 to 550 nm, and both excitation and emission slits were set to 5 nm. To determine the CcreOBP6 and CcreOBP10 protein binding constant with the fluorescent probe 1-NPN, a solution was prepared with CcreOBP6 and CcreOBP10 proteins in Tris-HCL (pH = 7.4) buffer with a 2 μM final concentration. The successive concentrations of 2, 4, 6, 8, 12, 16, and 20 μM of 1-NPN were added, and the fluorescence intensity was recorded at the maximum emission wavelength (Em = 410 nm) for each time, and the experiment was repeated three times. The formula for the protein and odor standard dissociation constant was calculated by: Ki = [IC 50]/(1 + [1-NPN]/K 1-NPN) where IC 50 denotes the odor standard concentrations as the fluorescence intensity value was decreased by half, [1-NPN] is the unbound 1-NPN prob concentration, and K 1-NPN is the protein and 1-NPN probe binding constant.

The subject of a further test is CcreOBP6. The experiment in a line: Fluorescence competitive binding assay with 1-NPN probe, CcreOBP6. On the set-up: species or system Cacia cretifera thibetana. The protocol:
as §1

A further test relates to males and females. More on the design: method as in PMID 23564737. The note with it: olfactometer, lower dose; cited from earlier work.
Setting [1] is: Ki = [IC50]/(1 + [1-NPN]/K1-NPN).
The mark [2] stands for this setting: competitive displacement of 1-NPN.
Setting [3] is: odor concentration at which 1-NPN fluorescence intensity is halved.
Where [4] appears, read: 2 μM protein, Tris-HCl pH 7.4, Em 410 nm, read-out: dissociation constant with fluorescent probe 1-NPN.

For `C=CC(=C)CCC=C(C)C` [Myrcene], the pKi at CcreOBP10 (setting [1]) is 4.86. Besides, the relative fluorescence value entry in the test with CcreOBP10 (setting [2]) is “below 50%”. Further, on CcreOBP10 (setting [3]), the negative-log IC50 (pIC50) is 4.75.
Turning to `C=C1CC/C=C(\C)CC[C@@H]2[C@@H]1CC2(C)C` [1-caryophyllene], the relative fluorescence value result in the test with CcreOBP10 (setting [2]) is listed as “below 50%”.
As for `CC(C)COC(=O)c1ccccc1C(=O)OCC(C)C` [di-isobutyl phthalate], the “drop in the relative fluorescence value” with CcreOBP10 (setting [2]) was 6.4%.
For the compound `C1=CCCCC=CCCC1` [1,6-cyclodecadiene], the “binding with CcreOBP6” value in the test on CcreOBP6 (setting [2]) is “did not show any binding”.
phytol: the “binding with CcreOBP6” value in the test on CcreOBP6 (setting [2]) is “did not show any binding”. Besides, in the test on CcreOBP10 (setting [2]), the “binding with CcreOBP10” value was “showed binding”.
Regarding `c1ccc(Nc2cccc3ccccc23)cc1` [1-NPN, N-phenyl-1-naphthylamine, reference compound], the pKd is 5.15 at CcreOBP6 (setting [4]) and 5.21 on CcreOBP10 (setting [4]).
In the case of `CCCCCC=O` [n-hexanal], the “binding with CcreOBP6” value in the test on CcreOBP6 (setting [2]) is “did not show any binding”. In the test on CcreOBP10 (setting [2]), the “binding with CcreOBP10” value is reported as “showed binding”.
Turning to `CCC/C=C/C=O` [trans-2-hexenal], at CcreOBP6 (setting [1]), the pKi is 4.89. Moreover, the “binding with CcreOBP6” value in the test on CcreOBP6 (setting [2]) was “strong binding affinities”. The compound also showed a pIC50 at CcreOBP6 (setting [3]) of 4.79. In addition, in the test with CcreOBP10 (setting [2]), the “binding with CcreOBP10” value is listed as “strong binding affinities” and the relative fluorescence value entry is recorded as “below 50%”. In addition, the repellent activity result in the test on males and females is recorded as “good repellent activity”.
In turn, `CC12CCC(CC1)C(C)(C)O2` [eucalyptol] displayed a relative fluorescence value in the test on CcreOBP6 (setting [2]) of 10.84%.
Consider `C=C1CC[C@H]2O[C@]2(C)CC[C@@H]2[C@@H]1CC2(C)C` [caryophyllene oxide], for which the “binding with CcreOBP6” value in the test with CcreOBP6 (setting [2]) is “did not show any binding”.
